Data published in the supplement of paper PMC10307832.

Columns and labels:
Experiment in all cases: relative viability (nuclei count vs DMSO), 5 days (fraction); higher = more cells survive
[1] = compound: Cn1cnc2c(F)c(Nc3ccc(Br)cc3Cl)c(C(=O)NOCCO)cc21 [Selumetinib] + CC(=O)c1c(C)c2cnc(Nc3ccc(N4CCNCC4)cn3)nc2n(C2CCCC2)c1=O [Palbociclib] (partner 0.5 µM)
How it was run: (§1)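 The day after seeding in 1536-well plates, lung cancer cell lines were treated by pin tool with a single drug, or with a fixed anchor-drug dose together with five library-drug doses (not always all listed) in √10 steps. After 5 days, a combined fix-and-stain solution (final 0.05% Triton X-100, 1% formaldehyde, 1 ug/ml Hoechst) was added. Nuclei counted on 4× images gave relative viability as treated counts over vehicle counts, reported as the median of duplicate plates.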

Selumetinib + Tozasertib = compound: Cn1cnc2c(F)c(Nc3ccc(Br)cc3Cl)c(C(=O)NOCCO)cc21 [Selumetinib] + Cc1cc(Nc2cc(N3CCN(C)CC3)nc(Sc3ccc(NC(=O)C4CC4)cc3)n2)n[nH]1 [Tozasertib] (partner 0.1 µM)
How it was run: as §1

Selumetinib + Alpelisib = compound: Cn1cnc2c(F)c(Nc3ccc(Br)cc3Cl)c(C(=O)NOCCO)cc21 [Selumetinib] + Cc1nc(NC(=O)N2CCC[C@H]2C(N)=O)sc1-c1ccnc(C(C)(C)C(F)(F)F)c1 [Alpelisib] (partner 2 µM)
How it was run: as §1

Selumetinib + Phenformin = compound: Cn1cnc2c(F)c(Nc3ccc(Br)cc3Cl)c(C(=O)NOCCO)cc21 [Selumetinib] + N=C(N)NC(=N)NCCc1ccccc1 [Phenformin] (partner 250 µM)
How it was run: as §1

Row | Cell Line | relative viability ([1]; first compound 0.02 µM) | relative viability ([1]; first compound 0.06325 µM) | relative viability ([1]; first compound 0.2 µM) | relative viability ([1]; first compound 0.6325 µM) | relative viability (Selumetinib + Tozasertib; first compound 0.02 µM) | relative viability (Selumetinib + Tozasertib; first compound 0.06325 µM) | relative viability (Selumetinib + Tozasertib; first compound 0.2 µM) | relative viability (Selumetinib + Tozasertib; first compound 0.6325 µM) | relative viability (Selumetinib + Alpelisib; first compound 0.02 µM) | relative viability (Selumetinib + Alpelisib; first compound 0.06325 µM) | relative viability (Selumetinib + Alpelisib; first compound 0.2 µM) | relative viability (Selumetinib + Alpelisib; first compound 0.6325 µM) | relative viability (Selumetinib + Phenformin; first compound 0.02 µM) | relative viability (Selumetinib + Phenformin; first compound 0.06325 µM) | relative viability (Selumetinib + Phenformin; first compound 0.2 µM) | relative viability (Selumetinib + Phenformin; first compound 0.6325 µM)
1 | NCI-H1666 | 0.669 | 0.649 | 0.699 | 0.668 | 0.589 | 0.489 | 0.528 | 0.554 | 0.701 | 0.721 | 0.478 | 0.551 | 0.506 | 0.534 | 0.569 | 0.565
2 | NCI-H2228 | 0.566 | 0.516 | 0.669 | 0.481 | 0.247 | 0.255 | 0.211 | 0.204 | 0.72 | 0.608 | 0.416 | 0.411 | 0.254 | 0.284 | 0.219 | 0.21
3 | HCC-44 | 1 | 0.971 | 1.01 | 1.09 | 1.12 | 0.93 | 0.747 | 0.701 | 0.88 | 0.72 | 0.719 | 0.663 | 0.179 | 0.187 | 0.209 | 0.184
4 | PC-14 | 0.482 | 0.369 | 0.363 | 0.309 | 0.529 | 0.486 | 0.532 | 0.434 | 0.92 | 0.835 | 0.925 | 0.848 | 0.516 | 0.507 | 0.529 | 0.447
5 | NCI-H1299 |  |  |  |  |  |  |  |  | 1.04 | 1.03 | 1.03 | 0.697 |  |  |  | 
6 | NCI-H661 | 0.415 | 0.384 | 0.418 | 0.382 | 0.381 | 0.366 | 0.386 | 0.374 | 0.653 | 0.598 | 0.501 | 0.606 | 0.261 | 0.291 | 0.272 | 0.246
7 | HCC-827 | 0.497 | 0.469 | 0.465 | 0.401 | 0.42 | 0.393 | 0.408 | 0.361 | 0.961 | 0.786 | 0.863 | 0.791 | 0.4 | 0.4 | 0.42 | 0.409
8 | NCI-H1915 | 0.491 | 0.366 | 0.33 | 0.228 | 0.428 | 0.568 | 0.319 | 0.303 | 1.02 | 0.936 | 0.692 | 0.49 | 0.423 | 0.371 | 0.271 | 0.284
9 | NCI-H441 | 0.168 | 0.154 | 0.157 | 0.139 | 0.587 | 0.656 | 0.636 | 0.583 | 0.775 | 0.754 | 0.656 | 0.647 | 0.886 | 0.674 | 0.667 | 0.468
10 | EBC-1 |  |  |  |  |  |  |  |  | 0.779 | 0.591 | 0.556 | 0.361 |  |  |  | 
11 | NCI-H1623 |  |  |  |  | 0.343 | 0.342 | 0.351 | 0.361 |  |  |  |  | 0.54 | 0.503 | 0.483 | 0.487
12 | NCI-H2342 | 0.476 | 0.53 | 0.498 | 0.482 | 0.461 | 0.546 | 0.473 | 0.576 |  |  |  |  | 0.623 | 0.618 | 0.564 | 0.722
13 | RERF-LC-KJ | 1.03 | 0.946 | 0.84 | 0.908 | 0.541 | 0.489 | 0.465 | 0.44 | 0.858 | 0.772 | 0.693 | 0.636 | 0.368 | 0.388 | 0.422 | 0.395
14 | SW 900 | 0.597 | 0.461 | 0.446 | 0.495 | 0.609 | 0.517 | 0.564 | 0.478 |  |  |  |  | 0.603 | 0.573 | 0.416 | 0.569
15 | NCI-H3122 | 0.188 | 0.139 | 0.132 | 0.153 | 0.397 | 0.351 | 0.305 | 0.268 | 0.551 | 0.492 | 0.353 | 0.366 | 0.386 | 0.305 | 0.287 | 0.286
16 | NCI-H2347 | 0.401 | 0.435 | 0.388 | 0.361 | 0.505 | 0.489 | 0.35 | 0.228 | 0.832 | 0.613 | 0.445 | 0.387 | 0.401 | 0.256 | 0.187 | 0.283
17 | NCI-H1651 | 0.512 | 0.501 | 0.475 | 0.489 | 0.644 | 0.643 | 0.591 | 0.537 | 0.779 | 0.899 | 0.975 | 0.828 | 0.329 | 0.264 | 0.281 | 0.298
18 | NCI-H1793 | 0.267 | 0.293 | 0.249 | 0.199 | 0.314 | 0.269 | 0.235 | 0.221 | 0.786 | 0.646 | 0.41 | 0.452 | 0.364 | 0.349 | 0.316 | 0.273
19 | EKVX | 0.285 | 0.278 | 0.227 | 0.186 | 0.36 | 0.345 | 0.378 | 0.336 | 0.678 | 0.711 | 0.61 | 0.448 | 0.22 | 0.217 | 0.214 | 0.22
20 | IA-LM |  |  |  |  |  |  |  |  | 0.431 | 0.237 | 0.216 | 0.191 |  |  |  | 
21 | NCI-H522 | 0.98 | 0.92 | 0.755 | 0.793 | 0.567 | 0.515 | 0.537 | 0.505 |  |  |  |  | 0.641 | 0.556 | 0.635 | 0.609
22 | NCI-H596 |  |  |  |  | 0.883 | 0.899 | 0.668 | 0.648 | 0.548 | 0.43 | 0.353 | 0.162 | 0.894 | 0.695 | 0.751 | 0.564
23 | A549 |  |  |  |  |  |  |  |  | 0.675 | 0.438 | 0.311 | 0.296 | 0.132 | 0.14 | 0.143 | 0.0906
24 | NCI-H1648 |  | 0.307 | 0.237 | 0.296 | 0.54 | 0.488 | 0.487 | 0.456 |  |  |  |  |  |  |  | 
25 | ChaGo-K-1 | 0.94 | 0.966 | 0.895 | 0.848 | 0.212 | 0.237 | 0.222 | 0.204 |  |  |  |  | 0.484 | 0.555 | 0.465 | 0.461
